In patent US11066416B2, “Rapafucin derivative compounds and methods of use thereof” (The Johns Hopkins University, priority 2016, dated 2021):

Experiments:
Format in all cases: cell-based
[1] = tested on: nucleoside uptake (3H-Thymidine); test: Nucleoside uptake assay (uptake) using 3H-Thymidine, IC50, cell line as indicated in each table (none given in Table 8); details: 3H-Thymidine uptake; cell line not given
Protocol: (§1) Nucleoside Uptake Assay (uptake). Nuceloside uptake assays were performed with using 3H-Thymidine as described in Guo et al. (2018) Nat. Chem. 11:254-63. Specific cell lines are indicated in each assay and cultured in complete growth media. Activity is scored according to the IC50 values relative to DMSO control. “Low” indicates an IC50 greater than 600 nM, “Medium” indicates an IC50 between 300 nM and 600 nM “High” indicates an IC50 less than 300 nM. “Rel.Uptake” refers to uptake activity characterization relative to a single concentration assay. “Low” indicates a response greater than 0.6 times the activity relative to DMSO, “Medium” indicates a response between 0.6 and 0.3 times the activity relative to DMSO, “High” indicates a response less than 0.3 times the activity relative to DMSO.

[2] = tested on: nucleoside uptake (3H-Thymidine); test: Rel.Uptake: nucleoside uptake, single concentration assay, cell line as indicated in each table; details: 293T, nucleoside uptake, response relative to DMSO
Protocol: as §1

[3] = tested on: H929; test: Cell proliferation assay (Prolif.), H929; details: for Prolif, H929: Table 11
Protocol: Cell Proliferation Assay (Prolif.) Guo et al. (2018) Nat. Chem. 11:254-63. Specific cell lines are indicated in each assay and cultured in complete growth media. Activity is scored according to the IC50 values relative to DMSO control. “Low” indicates an IC50 greater than 600 nM, “Medium” indicates an IC50 between 300 nM and 600 nM “High” indicates an IC50 less than 300 nM. “Rel.Uptake” refers to uptake activity characterization relative to a single concentration assay. “Low” indicates a response greater than 0.6 times the activity relative to DMSO, “Medium” indicates a response between 0.6 and 0.3 times the activity relative to DMSO, “High” indicates a response less than 0.3 times the activity relative to DMSO.

SMILES | IC50 [1] | Rel. Uptake, 293T [2] | Prolif, H929 ([3]; H929 cells) | Prolif. H929 ([3]; H929 cells, IC50 class relative to DMSO control) | Rel. Prolif., NCI-H929 ([3]; NCI-H929 cells, single concentration, response relative to DMSO)
CC[C@H](C)[C@H]1C(=O)N(C)CC/C=C/C(=O)OCC(C)(C)C(=O)C(=O)N2CCCC[C@H]2C(=O)O[C@H](CCc2ccc(OC)c(OC)c2)c2cccc(c2)NC(=O)CCC(=O)N[C@@H](c2ccccc2)C(=O)N(C)[C@H](Cc2ccccc2)C(=O)N2CCC[C@H]2C(=O)N1C [Compound 1616] | 100 nM | – | – | – | –
COc1ccc(CC[C@H]2OC(=O)[C@@H]3CCCCN3C(=O)C(=O)C(C)(C)COC(=O)C=CCCN(C)C(=O)[C@@H](C)N(C)C(=O)[C@@H]3CCCN3C(=O)[C@@H](Cc3ccccc3)N(C)C(=O)CNC(=O)COc3cccc2c3)cc1OC [Compound 1626] | 155 nM | – | – | – | –
COc1ccc(CC[C@H]2OC(=O)[C@@H]3CCCCN3C(=O)C(=O)C(C)(C)COC(=O)C=CCCN(C)C(=O)[C@@H](Cc3ccccc3)NC(=O)CN(C)C(=O)[C@@H](Cc3ccccc3)NC(=O)[C@H](Cc3ccc(O)cc3)N(C)C(=O)COc3cccc2c3)c(F)c1OC [Compound 1571] | – | low | low | – | –
COc1cc(O)c(CC[C@H]2OC(=O)[C@@H]3CCCCN3C(=O)C(=O)C(C)(C)COC(=O)C=CCCN(C)C(=O)[C@@H](Cc3ccccc3)NC(=O)CN(C)C(=O)[C@@H](Cc3ccccc3)NC(=O)[C@H](Cc3ccc(O)cc3)N(C)C(=O)COc3cccc2c3)cc1OC [Compound 1568] | – | low | low | – | –
COc1ccc(CC[C@H]2OC(=O)[C@@H]3CCCCN3C(=O)C(=O)C(C)(C)COC(=O)/C=C/CCN(C)C(=O)[C@H](C(C)C)N(C)C(=O)[C@@H]3CCCN3C(=O)[C@@H](Cc3ccccc3)N(C)C(=O)[C@H](c3ccccc3)NC(=O)CCC(=O)Nc3cccc2c3)cc1OC [Compound 1610] | 16.5 nM | – | – | – | –
COc1ccc(CC[C@H]2OC(=O)[C@@H]3CCCCN3C(=O)C(=O)C(C)(C)COC(=O)/C=C/CCN(C)C(=O)[C@H](C(C)C)N(C)C(=O)[C@@H]3CCCN3C(=O)[C@@H](Cc3ccccc3)N(C)C(=O)[C@H](C)NC(=O)COc3cccc2c3)cc1OC [Compound 1612] | 33.5 nM | – | – | – | –
COc1cc(OC)c(OC)cc1CC[C@H]1OC(=O)[C@@H]2CCCCN2C(=O)C(=O)C(C)(C)COC(=O)C=CCCN(C)C(=O)[C@@H](Cc2ccccc2)NC(=O)CN(C)C(=O)[C@@H](Cc2ccccc2)NC(=O)[C@H](Cc2ccc(O)cc2)N(C)C(=O)COc2cccc1c2 [Compound 1581] | – | medium | medium | – | –
COc1cc(CC[C@H]2OC(=O)[C@@H]3CCCCN3C(=O)C(=O)C(C)(C)COC(=O)C=CCCN(C)C(=O)[C@@H](Cc3ccccc3)NC(=O)CN(C)C(=O)[C@@H](Cc3ccccc3)NC(=O)[C@H](Cc3ccc(O)cc3)N(C)C(=O)COc3cccc2c3)cc(F)c1OC [Compound 1569] | – | low | low | – | –
COc1ccc(CC[C@H]2OC(=O)[C@@H]3CNCCN3C(=O)C(=O)C(C)(C)COC(=O)C=CCCN(C)C(=O)[C@@H](Cc3ccccc3)NC(=O)CN(C)C(=O)[C@@H](Cc3ccccc3)NC(=O)[C@H](Cc3ccc(O)cc3)N(C)C(=O)COc3cccc2c3)cc1OC [Compound 1573] | – | low | low | – | –
COc1ccc(CC[C@H]2OC(=O)[C@@H]3CCCCN3C(=O)C(=O)C(C)(C)COC(=O)C=CCCN(C)C(=O)[C@@H](Cc3ccccc3)NC(=O)CN(C)C(=O)[C@@H](Cc3ccccc3)NC(=O)[C@H](Cc3ccc(O)cc3)N(C)C(=O)COc3cccc2c3)c(O)c1OC [Compound 1584] | – | low | low | – | –
COc1ccc(CC[C@H]2OC(=O)[C@@H]3CCCCN3C(=O)C(=O)C(C)(C)COC(=O)C=CCCN(C)C(=O)[C@@H](Cc3ccccc3)NC(=O)CN(C)C(=O)[C@@H](Cc3ccccc3)NC(=O)[C@H](Cc3ccc(O)cc3)N(C)C(=O)COc3cccc2c3)c(OC)c1OC [Compound 1577] | – | medium | medium | – | –
COc1ccc(CC[C@H]2OC(=O)[C@@H]3CCCCN3C(=O)C(=O)C(C)(C)COC(=O)C=CCCN(C)C(=O)[C@@H](Cc3ccccc3)NC(=O)CN(C)C(=O)[C@@H](Cc3ccccc3)NC(=O)[C@H](Cc3ccc(O)cc3)N(C)C(=O)COc3ccc(F)c2c3)cc1OC [Compound 1575] | – | low | low | – | –
COc1ccc(CC[C@H]2OC(=O)[C@@H]3CCCCN3C(=O)C(=O)C(C)(C)COC(=O)C=CCCN(C)C(=O)[C@@H](Cc3ccccc3)NC(=O)CN(C)C(=O)[C@@H](Cc3ccccc3)NC(=O)[C@H](Cc3ccc(O)cc3)N(C)C(=O)COc3cncc2c3)cc1OC [Compound 1580] | – | low | low | – | –
COc1cc(F)c(CC[C@H]2OC(=O)[C@@H]3CCCCN3C(=O)C(=O)C(C)(C)COC(=O)C=CCCN(C)C(=O)[C@@H](Cc3ccccc3)NC(=O)CN(C)C(=O)[C@@H](Cc3ccccc3)NC(=O)[C@H](Cc3ccc(O)cc3)N(C)C(=O)COc3cccc2c3)cc1OC [Compound 1570] | – | medium | medium | – | –
COc1ccc(CC[C@H]2OC(=O)[C@@H]3CCCCN3C(=O)C(=O)C(C)(C)COC(=O)C=CCCN(C)C(=O)[C@@H](Cc3ccccc3)NC(=O)CN(C)C(=O)[C@@H](Cc3ccccc3)NC(=O)[C@H](Cc3ccc(O)cc3)N(C)C(=O)COc3cc2ccc3F)cc1OC [Compound 1578] | – | low | low | – | –
COc1ccc(CC[C@H]2OC(=O)[C@@H]3CCCCN3C(=O)C(=O)C(C)(C)COC(=O)C=CCCN(C)C(=O)[C@@H](Cc3ccccc3)NC(=O)CN(C)C(=O)[C@@H](Cc3ccccc3)NC(=O)[C@H](Cc3ccc(OC(=O)N4CCOCC4)cc3)N(C)C(=O)COc3cc(F)cc2c3)cc1OC [Compound 868] | – | – | – | low | low
COc1ccc(CC[C@H]2OC(=O)[C@@H]3CCCCN3C(=O)C(=O)C(C)(C)COC(=O)C=CCCN(C)C(=O)[C@@H](Cc3ccccc3)NC(=O)CN(C)C(=O)[C@@H](Cc3ccccc3)NC(=O)[C@H](Cc3ccc(O)cc3)N(C)C(=O)COc3cccc2c3F)cc1OC [Compound 1579] | – | medium | medium | – | –
COc1ccc(CC[C@H]2OC(=O)[C@@H]3CN(C(=O)OCC4c5ccccc5-c5ccccc54)CCN3C(=O)C(=O)C(C)(C)COC(=O)C=CCCN(C)C(=O)[C@@H](Cc3ccccc3)NC(=O)CN(C)C(=O)[C@@H](Cc3ccccc3)NC(=O)[C@H](Cc3ccc(O)cc3)N(C)C(=O)COc3cccc2c3)cc1OC [Compound 1572] | – | low | low | – | –
COc1cc(CC[C@H]2OC(=O)[C@@H]3CCCCN3C(=O)C(=O)C(C)(C)COC(=O)C=CCCN(C)C(=O)[C@@H](Cc3ccccc3)NC(=O)CN(C)C(=O)[C@@H](Cc3ccccc3)NC(=O)[C@H](Cc3ccc(O)cc3)N(C)C(=O)COc3cccc2c3)cc(O)c1OC [Compound 1567] | – | medium | medium | – | –
COc1cc(CC[C@H]2OC(=O)[C@@H]3CCCCN3C(=O)C(=O)C(C)(C)COC(=O)C=CCCN(C)C(=O)[C@@H](Cc3ccccc3)NC(=O)CN(C)C(=O)[C@@H](Cc3ccccc3)NC(=O)[C@H](Cc3ccc(O)cc3)N(C)C(=O)COc3cccc2c3)c(OC)c(OC)c1 [Compound 1582] | – | low | low | – | –
COc1ccc(CC[C@H]2OC(=O)[C@@H]3CN(C)CCN3C(=O)C(=O)C(C)(C)COC(=O)C=CCCN(C)C(=O)[C@@H](Cc3ccccc3)NC(=O)CN(C)C(=O)[C@@H](Cc3ccccc3)NC(=O)[C@H](Cc3ccc(O)cc3)N(C)C(=O)COc3cccc2c3)cc1OC [Compound 1574] | – | low | low | – | –
COc1cc(CC[C@H]2OC(=O)[C@@H]3CCCCN3C(=O)C(=O)C(C)(C)COC(=O)C=CCCN(C)C(=O)[C@@H](Cc3ccccc3)NC(=O)CN(C)C(=O)[C@@H](Cc3ccccc3)NC(=O)[C@H](Cc3ccc(O)cc3)N(C)C(=O)COc3cccc2c3)cc(OC)c1OC [Compound 1566] | – | medium | medium | – | –
COc1ccc(CC[C@H]2OC(=O)[C@@H]3CCCCN3C(=O)C(=O)C(C)(C)COC(=O)C=CCCN(C)C(=O)[C@@H](Cc3ccccc3)NC(=O)CN(C)C(=O)[C@@H](Cc3ccccc3)NC(=O)[C@H](Cc3ccc(O)cc3)N(C)C(=O)COc3cc(F)cc2c3)cc1OC [Compound 1576] | – | medium | medium | – | –
COc1ccc(OC)c(OC)c1CC[C@H]1OC(=O)[C@@H]2CCCCN2C(=O)C(=O)C(C)(C)COC(=O)C=CCCN(C)C(=O)[C@@H](Cc2ccccc2)NC(=O)CN(C)C(=O)[C@@H](Cc2ccccc2)NC(=O)[C@H](Cc2ccc(O)cc2)N(C)C(=O)COc2cccc1c2 [Compound 1583] | – | low | low | – | –
